From patent publication US20080009418A1, “Selective Inhibitors” (Alchemia LTD., priority 2004, published 2008)

Columns and labels:
Settings in all cases: compound at 10 μM
[1] = target: T1, Human neurokinin (NK1) (Homo sapiens, UniProt P25103); assay: Radioligand binding, human neurokinin NK1 membranes, filtration, [125I]-Substance P
T1 construct: purchased Perkin Elmer Biosignal
Outline: (§1)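 Membranes from cloned human receptors were incubated with compound and radioligand for 1 hour at room temperature. Bound ligand was collected on 0.3% PEI-soaked filters, washed with cold 50 mM Tris-HCl pH 7.4, and counted by scintillation. Percent inhibition was computed against DMSO totals and reference-ligand nonspecific wells.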

[2] = target: T2, Human opioid (ORL1) (Homo sapiens, UniProt P41146); assay: Radioligand binding, human opioid ORL1 membranes, FlashPlate, [125I]-Nociceptin
T2 construct: purchased Perkin Elmer Biosignal
Outline: (§2)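 Cloned human receptor membranes were coated onto FlashPlate wells and incubated with radioligand and compound (added from a 0.5 mM DMSO daughter plate) for 1 hour at room temperature in the dark. Scintillation counting gave percent inhibition, with DMSO defining total and reference ligand defining non-specific binding.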

[3] = target: T3, Human Melanocortin (MC4) (Homo sapiens, UniProt P32245); assay: Radioligand binding, human melanocortin MC4 membranes, FlashPlate, [125I]-NDP-αMSH
T3 construct: purchased Perkin Elmer Biosignal
Outline: as §2

[4] = target: T4, Mouse urotensin (mUR2) (Mus musculus, UniProt Q8VIH9); assay: Radioligand binding, mouse urotensin mUR2 membranes, FlashPlate, [125I]-Urotensin II
T4 construct: purchased Perkin Elmer Biosignal
T4 sequence (Q8VIH9 1-385): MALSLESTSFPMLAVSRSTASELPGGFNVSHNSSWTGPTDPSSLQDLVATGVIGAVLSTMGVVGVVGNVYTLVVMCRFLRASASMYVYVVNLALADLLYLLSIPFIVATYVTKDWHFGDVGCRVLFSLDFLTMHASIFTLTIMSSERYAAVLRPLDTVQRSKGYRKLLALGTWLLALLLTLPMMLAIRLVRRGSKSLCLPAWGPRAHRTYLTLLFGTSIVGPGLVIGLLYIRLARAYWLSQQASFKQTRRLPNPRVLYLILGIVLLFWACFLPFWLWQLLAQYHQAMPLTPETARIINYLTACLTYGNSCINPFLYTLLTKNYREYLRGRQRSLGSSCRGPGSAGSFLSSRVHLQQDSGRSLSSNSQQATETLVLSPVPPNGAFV
Outline: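 Cloned mouse urotensin (mUR2) receptor membranes from Perkin Elmer Biosignal were immobilized in FlashPlate microplates using a proprietary coating. Each well got 19.5 μl buffer, then 0.5 μl of DMSO, reference ligand, or compound. Adding 5 μl of [125I]-Urotensin II, diluted to 5× final concentration in binding buffer, started binding. Plates were sealed with TopSeal-A and incubated 1 hour at room temperature in the dark. Wells were counted for 30 seconds each on a TopCount after a 60-second delay, and percentage inhibition was calculated.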

[5] = target: T5, Human Melanocortin (MC3) (Homo sapiens, UniProt P41968); assay: Radioligand binding, human melanocortin MC3 membranes, FlashPlate, [125I]-NDP-αMSH
T5 construct: purchased Perkin Elmer Biosignal
Outline: as §2

[6] = target: T6, Human μ-opioid (MOP) (Homo sapiens, UniProt P35372); assay: Radioligand binding, human μ-opioid (MOP) membranes, FlashPlate, [3H]-Naloxone
T6 construct: purchased Perkin Elmer Biosignal
Outline: as §2

[7] = target: T7, Human melanin-concentrating hormone (MCH1) (Homo sapiens, UniProt Q99705); assay: Radioligand binding, human melanin-concentrating hormone MCH1 membranes, FlashPlate, [125I]-S36057
T7 construct: purchased Perkin Elmer Biosignal
Outline: as §2

[8] = target: T8, Human neuropeptide Y (NPY-Y1) (Homo sapiens, UniProt P25929); assay: Radioligand binding, human neuropeptide Y NPY-Y1 membranes, FlashPlate, [125I]-PYY
T8 construct: purchased Perkin Elmer Biosignal
T8 sequence (P25929 1-384): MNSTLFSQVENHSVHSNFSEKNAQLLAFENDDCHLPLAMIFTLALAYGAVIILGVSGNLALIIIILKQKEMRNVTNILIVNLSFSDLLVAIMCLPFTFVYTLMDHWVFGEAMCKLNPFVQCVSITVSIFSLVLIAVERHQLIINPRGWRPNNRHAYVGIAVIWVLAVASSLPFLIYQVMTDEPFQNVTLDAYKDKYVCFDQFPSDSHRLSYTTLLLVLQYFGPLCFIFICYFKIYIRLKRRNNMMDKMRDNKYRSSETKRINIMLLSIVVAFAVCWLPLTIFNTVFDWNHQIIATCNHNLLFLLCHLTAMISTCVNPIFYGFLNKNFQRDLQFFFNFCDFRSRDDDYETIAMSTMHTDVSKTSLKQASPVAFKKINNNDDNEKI
Outline: as §2

[9] = target: T9, Human δ-opioid (DOP) (Homo sapiens, UniProt P41143); assay: Radioligand binding, human δ-opioid (DOP) membranes, FlashPlate, [3H]-Bremazocine
T9 construct: purchased Perkin Elmer Biosignal
Outline: as §2

[10] = target: T10, Human κ-Opioid (KOP) (Homo sapiens, UniProt P41145); assay: Radioligand binding, human κ-opioid (KOP) membranes, filtration, [3H]-Diprenorphine
T10 construct: purchased Perkin Elmer Biosignal
Outline: as §1

[11] = target: T11, Human melanocortin (MC5) (Homo sapiens, UniProt P33032); assay: Radioligand binding, human melanocortin MC5 membranes, FlashPlate, [125I]-NDP-αMSH
T11 construct: purchased Perkin Elmer Biosignal
Outline: as §2

[12] = [125I]-Urotensin II, FlashPlate

T6 sequence (P35372 whole entry): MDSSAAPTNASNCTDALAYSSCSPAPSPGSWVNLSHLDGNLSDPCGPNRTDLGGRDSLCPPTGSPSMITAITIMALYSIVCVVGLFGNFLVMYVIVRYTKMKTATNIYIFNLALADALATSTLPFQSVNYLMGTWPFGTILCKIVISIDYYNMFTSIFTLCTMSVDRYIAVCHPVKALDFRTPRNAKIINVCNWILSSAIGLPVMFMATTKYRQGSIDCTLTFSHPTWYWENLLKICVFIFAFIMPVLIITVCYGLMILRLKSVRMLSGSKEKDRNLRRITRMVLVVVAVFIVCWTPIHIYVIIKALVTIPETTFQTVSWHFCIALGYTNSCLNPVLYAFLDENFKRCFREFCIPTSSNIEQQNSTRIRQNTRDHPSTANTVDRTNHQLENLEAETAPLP
T10 sequence (P41145 whole entry): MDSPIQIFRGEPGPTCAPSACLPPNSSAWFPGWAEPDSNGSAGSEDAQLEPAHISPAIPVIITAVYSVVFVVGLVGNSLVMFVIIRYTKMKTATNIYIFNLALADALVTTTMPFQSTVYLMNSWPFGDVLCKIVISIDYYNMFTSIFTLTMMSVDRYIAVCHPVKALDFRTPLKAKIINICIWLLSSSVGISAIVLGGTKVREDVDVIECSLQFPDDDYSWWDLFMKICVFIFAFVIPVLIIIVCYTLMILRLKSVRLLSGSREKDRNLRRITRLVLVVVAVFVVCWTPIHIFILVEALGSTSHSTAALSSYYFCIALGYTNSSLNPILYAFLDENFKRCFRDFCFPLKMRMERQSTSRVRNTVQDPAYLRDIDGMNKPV
T11 sequence (P33032 whole entry): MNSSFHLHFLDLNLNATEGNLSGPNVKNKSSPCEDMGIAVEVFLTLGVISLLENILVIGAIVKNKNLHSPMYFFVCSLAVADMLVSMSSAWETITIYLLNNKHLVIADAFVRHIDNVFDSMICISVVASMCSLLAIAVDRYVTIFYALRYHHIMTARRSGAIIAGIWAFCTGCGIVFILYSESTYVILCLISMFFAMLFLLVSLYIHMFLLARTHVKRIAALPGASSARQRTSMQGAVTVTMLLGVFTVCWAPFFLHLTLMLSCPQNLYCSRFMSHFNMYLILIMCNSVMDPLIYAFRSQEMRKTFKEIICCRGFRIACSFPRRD
T2 sequence (P41146 whole entry): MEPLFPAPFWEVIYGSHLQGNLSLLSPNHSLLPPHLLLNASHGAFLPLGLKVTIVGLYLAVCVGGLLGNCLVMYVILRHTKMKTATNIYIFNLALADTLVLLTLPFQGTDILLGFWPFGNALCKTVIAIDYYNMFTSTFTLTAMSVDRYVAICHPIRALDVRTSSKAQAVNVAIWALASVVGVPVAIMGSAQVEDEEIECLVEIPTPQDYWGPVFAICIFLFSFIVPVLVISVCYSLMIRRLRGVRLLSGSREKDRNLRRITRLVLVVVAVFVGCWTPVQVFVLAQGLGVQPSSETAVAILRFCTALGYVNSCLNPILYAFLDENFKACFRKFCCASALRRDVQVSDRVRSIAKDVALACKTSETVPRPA
T5 sequence (P41968 whole entry): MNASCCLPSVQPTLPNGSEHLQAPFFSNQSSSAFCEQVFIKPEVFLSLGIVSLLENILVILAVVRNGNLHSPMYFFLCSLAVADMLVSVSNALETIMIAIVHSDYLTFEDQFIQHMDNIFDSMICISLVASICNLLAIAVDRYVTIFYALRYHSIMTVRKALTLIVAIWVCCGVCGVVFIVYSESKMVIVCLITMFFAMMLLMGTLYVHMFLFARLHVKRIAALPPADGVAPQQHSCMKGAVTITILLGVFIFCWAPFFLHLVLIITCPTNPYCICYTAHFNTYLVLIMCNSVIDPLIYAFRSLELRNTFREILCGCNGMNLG
T9 sequence (P41143 whole entry): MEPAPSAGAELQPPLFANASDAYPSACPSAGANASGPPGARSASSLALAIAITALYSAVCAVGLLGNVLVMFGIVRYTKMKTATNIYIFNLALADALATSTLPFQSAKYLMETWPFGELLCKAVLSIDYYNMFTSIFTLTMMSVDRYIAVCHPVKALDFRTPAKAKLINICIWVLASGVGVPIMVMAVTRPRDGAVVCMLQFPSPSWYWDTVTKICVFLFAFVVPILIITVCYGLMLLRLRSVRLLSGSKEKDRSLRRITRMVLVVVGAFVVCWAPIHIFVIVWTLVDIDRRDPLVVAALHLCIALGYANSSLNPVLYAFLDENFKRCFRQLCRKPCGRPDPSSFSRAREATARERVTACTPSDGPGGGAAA
T7 sequence (Q99705 whole entry): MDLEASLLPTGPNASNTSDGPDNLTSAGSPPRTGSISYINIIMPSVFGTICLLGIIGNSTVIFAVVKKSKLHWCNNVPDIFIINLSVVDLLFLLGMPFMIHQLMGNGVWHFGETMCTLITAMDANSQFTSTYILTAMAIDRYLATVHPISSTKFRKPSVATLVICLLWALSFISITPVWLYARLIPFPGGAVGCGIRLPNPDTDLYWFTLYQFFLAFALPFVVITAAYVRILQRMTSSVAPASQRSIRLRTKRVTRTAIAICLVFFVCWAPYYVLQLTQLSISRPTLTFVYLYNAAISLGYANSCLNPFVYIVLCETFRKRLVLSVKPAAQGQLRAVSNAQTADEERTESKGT
T1 sequence (P25103 whole entry): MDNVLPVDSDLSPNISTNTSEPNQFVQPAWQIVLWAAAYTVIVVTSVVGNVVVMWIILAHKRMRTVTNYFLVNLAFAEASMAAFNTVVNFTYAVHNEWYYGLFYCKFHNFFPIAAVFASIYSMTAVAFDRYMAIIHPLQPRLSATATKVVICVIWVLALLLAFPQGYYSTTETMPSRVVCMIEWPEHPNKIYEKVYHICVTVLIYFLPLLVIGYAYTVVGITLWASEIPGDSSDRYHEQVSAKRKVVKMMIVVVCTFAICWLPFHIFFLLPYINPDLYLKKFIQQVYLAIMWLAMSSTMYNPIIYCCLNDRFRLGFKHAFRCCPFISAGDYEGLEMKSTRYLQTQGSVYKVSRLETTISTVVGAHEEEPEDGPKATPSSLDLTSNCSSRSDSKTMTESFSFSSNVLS
T3 sequence (P32245 whole entry): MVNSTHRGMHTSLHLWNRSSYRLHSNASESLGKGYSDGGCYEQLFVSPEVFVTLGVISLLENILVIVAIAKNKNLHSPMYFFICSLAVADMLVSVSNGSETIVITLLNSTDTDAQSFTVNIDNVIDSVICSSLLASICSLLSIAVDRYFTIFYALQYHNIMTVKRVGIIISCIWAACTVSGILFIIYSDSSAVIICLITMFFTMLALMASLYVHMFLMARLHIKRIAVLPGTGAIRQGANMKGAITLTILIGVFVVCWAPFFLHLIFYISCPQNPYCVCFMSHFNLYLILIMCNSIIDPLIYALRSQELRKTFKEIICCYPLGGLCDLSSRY

SMILES: CSC1OC(COCc2ccc(-c3ccccc3)cc2)C(O)C(OCc2ccccc2)C1NC(=O)CNC(=N)N (stereo not shown) [compound 255]
- A8: inhibition of radioligand binding ([1]; [125I]-Substance P, filtration): + (“+” indicates greater than 50% inhibition at 10 μM)
- A10: inhibition of radioligand binding ([2]; [125I]-Nociceptin, FlashPlate): − (“−” indicates less than 50% inhibition at 10 μM)
- A4: inhibition of radioligand binding ([3]; [125I]-NDP-αMSH, FlashPlate): + (“+” indicates greater than 50% inhibition at 10 μM)
- A11: inhibition of radioligand binding [4, 12]: − (“−” indicates less than 50% inhibition at 10 μM)
- A3: inhibition of radioligand binding ([5]; [125I]-NDP-αMSH, FlashPlate): − (“−” indicates less than 50% inhibition at 10 μM)
- A7: inhibition of radioligand binding ([6]; [3H]-Naloxone, FlashPlate): − (“−” indicates less than 50% inhibition at 10 μM)
- A6: inhibition of radioligand binding ([7]; [125I]-S36057, FlashPlate): − (“−” indicates less than 50% inhibition at 10 μM)
- A9: inhibition of radioligand binding ([8]; [125I]-PYY, FlashPlate): − (“−” indicates less than 50% inhibition at 10 μM)
- A1: inhibition of radioligand binding ([9]; [3H]-Bremazocine, FlashPlate): − (“−” indicates less than 50% inhibition at 10 μM)
- A2: inhibition of radioligand binding ([10]; [3H]-Diprenorphine, filtration): − (“−” indicates less than 50% inhibition at 10 μM)
- A5: inhibition of radioligand binding ([11]; [125I]-NDP-αMSH, FlashPlate): + (“+” indicates greater than 50% inhibition at 10 μM)

SMILES: NCCCC(=O)NC1C(OCc2ccc3ccccc3c2)OC(COCc2ccc3ccccc3c2)C(O)C1OCc1ccc(Cl)cc1 (stereo not shown) [compound 390]
- A8: inhibition of radioligand binding ([1]; [125I]-Substance P, human NK1 membranes): + (“+” indicates greater than 50% inhibition at 10 μM)
- A10: inhibition of radioligand binding ([2]; [125I]-Nociceptin, human ORL1 membranes, 10 µM): + (“+” indicates greater than 50% inhibition at 10 μM)
- A4: inhibition of radioligand binding ([3]; [125I]-NDP-αMSH, human MC4 membranes): + (“+” indicates greater than 50% inhibition at 10 μM)
- A11: inhibition of radioligand binding ([4]; [125I]-Urotensin II, mouse mUR2 membranes): − (“−” indicates less than 50% inhibition at 10 μM)
- A3: inhibition of radioligand binding ([5]; [125I]-NDP-αMSH, human MC3 membranes): + (“+” indicates greater than 50% inhibition at 10 μM)
- A7: inhibition of radioligand binding ([6]; [3H]-Naloxone, human MOP membranes, 10 µM): − (“−” indicates less than 50% inhibition at 10 μM)
- A6: inhibition of radioligand binding ([7]; [125I]-S36057, human MCH1 membranes): + (“+” indicates greater than 50% inhibition at 10 μM)
- A9: inhibition of radioligand binding ([8]; [125I]-PYY, human NPY-Y1 membranes): − (“−” indicates less than 50% inhibition at 10 μM)
- A1: inhibition of radioligand binding ([9]; [3H]-Bremazocine, human DOP membranes): − (“−” indicates less than 50% inhibition at 10 μM)
- A2: inhibition of radioligand binding ([10]; [3H]-Diprenorphine, human KOP membranes, 10 µM): − (“−” indicates less than 50% inhibition at 10 μM)
- A5: inhibition of radioligand binding ([11]; [125I]-NDP-αMSH, human MC5 membranes): + (“+” indicates greater than 50% inhibition at 10 μM)

SMILES: CSC1O[C@H](COCc2ccc(Cl)cc2)[C@@H](O)[C@@H](OCc2ccc(Cl)cc2)[C@H]1NC(=O)CCNC(=N)N (stereo partly shown) [compound 272]
- A8: inhibition of radioligand binding ([1]; [125I]-Substance P, filtration): + (“+” indicates greater than 50% inhibition at 10 μM)
- A10: inhibition of radioligand binding ([2]; [125I]-Nociceptin, FlashPlate): − (“−” indicates less than 50% inhibition at 10 μM)
- A4: inhibition of radioligand binding ([3]; [125I]-NDP-αMSH, FlashPlate): + (“+” indicates greater than 50% inhibition at 10 μM)
- A11: inhibition of radioligand binding [4, 12]: − (“−” indicates less than 50% inhibition at 10 μM)
- A3: inhibition of radioligand binding ([5]; [125I]-NDP-αMSH, FlashPlate): − (“−” indicates less than 50% inhibition at 10 μM)
- A7: inhibition of radioligand binding ([6]; [3H]-Naloxone, FlashPlate): − (“−” indicates less than 50% inhibition at 10 μM)
- A6: inhibition of radioligand binding ([7]; [125I]-S36057, FlashPlate): − (“−” indicates less than 50% inhibition at 10 μM)
- A9: inhibition of radioligand binding ([8]; [125I]-PYY, FlashPlate): − (“−” indicates less than 50% inhibition at 10 μM)
- A1: inhibition of radioligand binding ([9]; [3H]-Bremazocine, FlashPlate): − (“−” indicates less than 50% inhibition at 10 μM)
- A2: inhibition of radioligand binding ([10]; [3H]-Diprenorphine, filtration): − (“−” indicates less than 50% inhibition at 10 μM)
- A5: inhibition of radioligand binding ([11]; [125I]-NDP-αMSH, FlashPlate): + (“+” indicates greater than 50% inhibition at 10 μM)

SMILES: CSC1OC(COCc2ccc3ccccc3c2)C(O)C(OCc2ccc3ccccc3c2)C1NC(=O)CCNC(=N)N (stereo not shown) [compound 319]
- A8: inhibition of radioligand binding, human neurokinin (NK1) ([1]; [125I]-Substance P): + (“+” indicates greater than 50% inhibition at 10 μM)
- A10: inhibition of radioligand binding, human opioid (ORL1) ([2]; [125I]-Nociceptin): − (“−” indicates less than 50% inhibition at 10 μM)
- A4: inhibition of radioligand binding, human melanocortin (MC4) ([3]; [125I]-NDP-αMSH): + (“+” indicates greater than 50% inhibition at 10 μM)
- A11: inhibition of radioligand binding, mouse urotensin (mUR2) ([4]; [125I]-Urotensin II): − (“−” indicates less than 50% inhibition at 10 μM)
- A3: inhibition of radioligand binding, human melanocortin (MC3) ([5]; [125I]-NDP-αMSH): − (“−” indicates less than 50% inhibition at 10 μM)
- A7: inhibition of radioligand binding, human μ-opioid (MOP) ([6]; [3H]-Naloxone): − (“−” indicates less than 50% inhibition at 10 μM)
- A6: inhibition of radioligand binding, human melanin-concentrating hormone (MCH1) ([7]; [125I]-S36057): − (“−” indicates less than 50% inhibition at 10 μM)
- A9: inhibition of radioligand binding, human neuropeptide Y (NPY-Y1) ([8]; [125I]-PYY): − (“−” indicates less than 50% inhibition at 10 μM)
- A1: inhibition of radioligand binding, human δ-opioid (DOP) ([9]; [3H]-Bremazocine): − (“−” indicates less than 50% inhibition at 10 μM)
- A2: inhibition of radioligand binding, human κ-opioid (KOP) ([10]; [3H]-Diprenorphine): − (“−” indicates less than 50% inhibition at 10 μM)
- A5: inhibition of radioligand binding, human melanocortin (MC5) ([11]; [125I]-NDP-αMSH): + (“+” indicates greater than 50% inhibition at 10 μM)

SMILES: COC[C@H]1OC(OCCc2ccccc2)[C@H](NC(=O)CCNC(=N)N)[C@@H](OCc2ccccc2)[C@@H]1O (stereo partly shown) [compound 46]
- A8 radioligand binding inhibition ([1]; human neurokinin NK1 membranes): + (“+” indicates greater than 50% inhibition at 10 μM)
- A10 radioligand binding inhibition ([2]; human ORL1 membranes): − (“−” indicates less than 50% inhibition at 10 μM)
- A4 radioligand binding inhibition ([3]; human melanocortin MC4 membranes): − (“−” indicates less than 50% inhibition at 10 μM)
- A11 radioligand binding inhibition ([4]; mouse urotensin mUR2 membranes): − (“−” indicates less than 50% inhibition at 10 μM)
- A3 radioligand binding inhibition ([5]; human melanocortin MC3 membranes): − (“−” indicates less than 50% inhibition at 10 μM)
- A7 radioligand binding inhibition ([6]; human μ-opioid (MOP) membranes): − (“−” indicates less than 50% inhibition at 10 μM)
- A6 radioligand binding inhibition ([7]; human MCH1 membranes): − (“−” indicates less than 50% inhibition at 10 μM)
- A9 radioligand binding inhibition ([8]; human NPY-Y1 membranes): − (“−” indicates less than 50% inhibition at 10 μM)
- A1 radioligand binding inhibition ([9]; human δ-opioid (DOP) membranes): − (“−” indicates less than 50% inhibition at 10 μM)
- A2 radioligand binding inhibition ([10]; human κ-opioid (KOP) membranes): − (“−” indicates less than 50% inhibition at 10 μM)
- A5 radioligand binding inhibition ([11]; human melanocortin MC5 membranes): − (“−” indicates less than 50% inhibition at 10 μM)
